Laboratory results as given in patent US12594292B2, “Antiviral prodrugs, intermediate-and long-acting formulations and methods” (priority 2022, dated 2026).

Tests used:
HIV-1 = conditions: HIV infected human PBMCs
Experimental: Antiviral activities were determined in HIV infected human PBMCs.

HCoV-229E = type: cell-based, human Coronavirus 229E
TMPRSS2-Vero cells = assay: Cytotoxicity in TMPRSS2-Vero cells, nuclei count (Example 6); type: cell-based; conditions: TMPRSS2-Vero cells; read-out: CC50
SARS-CoV-2 [1] = assay: SARS-CoV-2 infection assay in Huh7.5 cells, nucleocapsid immunofluorescence (Example 6); type: cell-based; conditions: MOI 0.1, 48 hours
SARS-CoV-2 [2] = assay: SARS-CoV-2 infection assay in TMPRSS2-Vero cells, nucleocapsid immunofluorescence (Example 6); type: cell-based; conditions: MOI 0.01, 32 hours
Huh7.5 cells = assay: Cytotoxicity in Huh7.5 cells, nuclei count (Example 6); type: cell-based, human; conditions: Huh7.5 cells; read-out: CC50
SARS-CoV-2 [3] = assay: SARS-CoV-2 infection assay in Calu-3 cells, nucleocapsid immunofluorescence (Example 6); conditions: MOI 0.01, 44 hour
Calu-3 cells = assay: Cytotoxicity in Calu-3 cells, nuclei count or CellTiter-Glo (Example 6); conditions: for select compounds up to 100 μM by CellTiter-Glo
Experimental: After which an equal volume of CellTiter-Glo reagent (Cat. #G7570, Promega, Madison, WI) was added, mixed and luminescence recorded on a Veritas Microplate Luminometer (Turner BioSystems) according to manufacturer recommendations.

HFF cells = assay: Persistence of TFVpp in HFF cells after a 3 day exposure
From the text: HFF cells were exposed to 1 micromolar drug for 3 days. At days 0, 1, 2, 4, 7, 14, 21, and 28, cells were trypsinized, counted, and processed for LC/MS measurement of TFVpp. Data were expressed at ftg/cell. nm=not meaningful; ftg—gemtogram.

Molecule | EC50 (HIV-1) | EC50 (HCoV-229E) [nM] | EC90 (HCoV-229E) [nM] | CC50 (TMPRSS2-Vero cells) [µM] | EC50 (SARS-CoV-2 [1]) [nM] | EC90 (SARS-CoV-2 [1]) [nM] | CC50 (MRC-5 cells) [µM] | EC50 (SARS-CoV-2 [2]) [nM] | EC90 (SARS-CoV-2 [2]) [nM] | CC50 (Huh7.5 cells) [µM] | EC50 (SARS-CoV-2 [3]) [nM] | EC90 (SARS-CoV-2 [3]) [nM] | CC50 (Calu-3 cells) [µM] | T1/2 of TFVpp (HFF cells) | Tmax of TFVpp (HFF cells) [days]
CCCCCCCCCCCCCCCCCCOCCOP(=O)(CO[C@H](C)Cn1cnc2c(N)nc(N)nc21)OCc1ccccc1 (stereo partly drawn) [ODE-Bn-PMPDAP, Octadecyloxyethyl benzyl 9-(R)-[(2-phosphonomethoxy)propyl]-2,6-diaminopurine] | active |  |  |  |  |  |  |  |  |  |  |  |  |  | 
CCCCCCCCCCCCCCCCCCCCOP(=O)(O)OC[C@H]1O[C@](C#N)(c2ccc3c(N)ncnn23)[C@H](O)[C@@H]1O [Compound 4a, Eicosyl-phospho-RVn] |  | 910 | 1800 | > 20 | 1410 | 4750 | > 50 | 1170 | 2180 | > 20 | 178 ± 35 | 1320 ± 566 | > 20 |  | 
CCCCCCCCCCCCCCCCCCOC[C@H](COP(=O)(O)OC[C@H]1O[C@@](C#N)(c2ccc3c(N)ncnn23)[C@H](O)[C@@H]1O)OCCCCCCCC [Compound 15f, 1-O-Octadecyl-2-O-octyl-sn-glyceryl-phospho-RVn] |  | 120 ± 57 | 290 ± 58 | > 20 | 710 | 1710 | > 50 | 1330 | 2350 | > 20 | 410 ± 60 | 2310 ± 738 | > 20 |  | 
CCCCCCCCCCCCCCCCCCOC[C@H](COP1(=O)OC[C@H]2O[C@@](C#N)(c3ccc4c(N)ncnn34)[C@H](O)[C@@H]2O1)OCc1ccccc1 (stereo partly drawn) [Compound 18-eq, GS-441524-3′,5′-cyclic monophosphate, 1-O-octadecyl-2-O-benzyl-sn-glyceryl ester] |  |  |  |  |  |  |  |  |  |  | > 20000 | > 20000 | > 20 |  | 
2-(Octadecyloxy)ethyl benzyl phospho-RVn [Compound 6c] |  | 220 ± 56 | 440 ± 85 |  |  |  | > 50 |  |  |  |  |  |  |  | 
CCCCCCCCCCCCCCCCCCOCCO[P@]1(=O)OC[C@H]2O[C@](C#N)(c3ccc4c(N)ncnn34)[C@H](O)[C@@H]2O1 [Compound 19-eq] |  |  |  |  |  |  |  |  |  |  | 2760 ± 808 | 19200 ± 12700 | > 20 |  | 
CCCCCCCCCCCCCCCCCCOC[C@H](COP(=O)(O)OC[C@H]1O[C@@](C#N)(c2ccc3c(N)ncnn23)[C@H](O)[C@@H]1O)OCc1ccc(C(F)(F)F)cc1 [Compound 15p, 1-O-Octadecyl-2-O-(4-trifluoromethyl)benzyl-sn-glyceryl-phospho-RVn] |  |  | 330 ± 39 |  |  |  | 13.9 ± 8.8 |  |  |  |  |  |  |  | 
CCCCCCCC/C=C\CCCCCCCCOCCOP(=O)(CO[C@H](C)Cn1cnc2c(N)nc(N)nc21)OCc1ccccc1 (stereo partly drawn) [OLE-Bn-PMPDAP, Oleyloxyethyl benzyl 9-(R)-[(2-phosphonomethoxy)propyl]-2,6-diaminopurine] | active |  |  |  |  |  |  |  |  |  |  |  |  |  | 
CCCCCCCCCCCCCCCCCCOCCOP1(=O)OCC2OC(C#N)(c3ccc4c(N)ncnn34)C(O)C2O1 (stereo not drawn) [Compound 19-ax] |  |  |  |  |  |  |  |  |  |  | 8150 ± 8420 | > 20000 | > 20 |  | 
CCCCCCCCCCCCCCCCCCOC[C@@H](COP(=O)(O)OC[C@H]1O[C@@](C#N)(c2ccc3c(N)ncnn23)[C@H](O)[C@@H]1O)OCc1ccccc1 [Compound 15n, 3-O-Octadecyl-2-O-benzyl-sn-glyceryl-1-phospho-RVn] |  |  |  |  |  |  |  |  |  |  | 163 ± 22 | 623 ± 183 | > 20 |  | 
CCCCCCCCCCCCCCCCCCOC[C@H](COP(=O)(OCc1ccccc1)OC[C@H]1O[C@@](C#N)(c2ccc3c(N)ncnn23)[C@H](O)[C@@H]1O)OCc1ccccc1 (stereo partly drawn) [Compound 17, 1-O-Octadecyl-2-O-benzyl-sn-glyceryl-benzyl-phospho-RVn] |  | 1500 ± 930 | 4270 ± 880 | > 20 | 3540 | 16400 | > 50 | 7440 | 15300 | > 20 | 5320 ± 1390 | 10900 ± 5480 | > 20 |  | 
CCCCCCCCCCCCCCCCCCOC[C@H](COP(=O)(O)OC[C@H]1O[C@@](C#N)(c2ccc3c(N)ncnn23)[C@H](O)[C@@H]1O)OCc1cccc(F)c1 [Compound 15h, 1-O-Octadecyl-2-O-(3-fluoro-benzyl)-sn-glyceryl-phospho-RVn] |  | 1400 ± 58 | 2800 ± 40 | > 20 | 182 | 444 | 22.9 ± 0.1 | 270 | 629 | > 20 | 216 ± 62 | 548 ± 368 | > 20 |  | 
CCCCCCCCCCCCCCCCCCOC[C@H](COP(=O)(O)OC[C@H]1O[C@@](C#N)(c2ccc3c(N)ncnn23)[C@H](O)[C@@H]1O)OCc1cccc(C(F)(F)F)c1 [Compound 15o, 1-O-Octadecyl-2-O-(3-trifluoromethyl)benzyl-sn-glyceryl-phospho-RVn] |  | 160 ± 46 | 460 ± 270 |  |  |  | 16 ± 2.8 |  |  |  | 166 ± 68 | 278 ± 109 | > 20 |  | 
CCCCCCCCCCCCCCCCCCOCC(COP(=O)(O)OC[C@H]1O[C@@](C#N)(c2ccc3c(N)ncnn23)[C@H](O)[C@@H]1O)OCc1ccccc1 (mixture of isomers) [Compound 15e, 1-O-octadecyl-2-O-benzyl-rac-glyceryl-phospho-RVn] |  | 210 ± 4 | 350 ± 6 | > 20 | 163 | 514 | 30.9 ± 7.7 | 242 | 642 | > 20 | 210 ± 62 | 763 ± 490 | > 20 |  | 
1-O-Octadecyl-2-O-(ethylcyclohexyl)-sn-glyceryl-phospho-RVn [Compound 15g] |  |  |  |  |  |  |  |  |  |  | 147 ± 32 | 1660 ± 798 | > 20 |  | 
CCCCCCCCCCCCCCCCOC[C@H](COP(=O)(O)OC[C@H]1O[C@@](C#N)(c2ccc3c(N)ncnn23)[C@H](O)[C@@H]1O)OCc1ccccc1 [Compound 15b, 1-O-Hexadecyl-2-O-benzyl-sn-glyceryl-phospho-RVn] |  | 560 ± 270 | 980 ± 380 | > 20 | 130 | 309 | > 50 | 395 | 810 | > 20 | 101 ± 20 | 623 ± 272 | 88.2 ± 8.89 |  | 
CCCCCCCCCCCCCCCCOCCCOP(=O)(CO[C@H](C)Cn1cnc2c(N)ncnc21)OCc1ccccc1 (stereo partly drawn) [HDP-Bn-TFV] |  |  |  |  |  |  |  |  |  |  |  |  |  | 1.8 | 0
CCCCCCCC/C=C\CCCCCCCCOC[C@H](COP(=O)(O)OC[C@H]1O[C@@](C#N)(c2ccc3c(N)ncnn23)[C@H](O)[C@@H]1O)OCc1ccccc1 [Compound 15l, 1-O-Oleyl-2-O-benzyl-sn-glyceryl-phospho-RVn] |  | 130 ± 29 | 260 ± 3.7 | > 20 | 100 | 246 | > 50 | 295 | 568 | > 20 | 198 ± 77 | 294 ± 93 | 79 ± 6.95 |  | 
CCCCCCCCCCCCCCOC[C@H](COP(=O)(O)OC[C@H]1O[C@@](C#N)(c2ccc3c(N)ncnn23)[C@H](O)[C@@H]1O)OCc1ccccc1 [Compound 15a, 1-O-Tetradecyl-2-O-benzyl-sn-glyceryl-phospho-RVn] |  | 760 ± 340 | 3250 | > 20 | 156 | 493 | > 50 | 901 | 1690 | > 20 | 212 ± 25 | 536 ± 150 | > 20 |  | 
